Reference: article PMC8025302, “Structural and biophysical characterization of the tandem substrate-binding domains of the ABC importer GlnPQ” (Open Biology, 2021)
Values joined by “and” are separate entries in the source; they are usually repeats but may differ in a detail not shown here. Equal values may be shown once.

Legend:
SBD1-2(D417F) = target: T1, SBD1-2(D417F) (Lactococcus lactis, UniProt Q9CES5, D417F); assay: Isothermal titration calorimetry, tandem variant with inactive SBD2; conditions: binding to SBD1 in SBD1-2(D417F) (inactive SBD2); ITC
T1 sequence (Q9CES5 27-484 D417F): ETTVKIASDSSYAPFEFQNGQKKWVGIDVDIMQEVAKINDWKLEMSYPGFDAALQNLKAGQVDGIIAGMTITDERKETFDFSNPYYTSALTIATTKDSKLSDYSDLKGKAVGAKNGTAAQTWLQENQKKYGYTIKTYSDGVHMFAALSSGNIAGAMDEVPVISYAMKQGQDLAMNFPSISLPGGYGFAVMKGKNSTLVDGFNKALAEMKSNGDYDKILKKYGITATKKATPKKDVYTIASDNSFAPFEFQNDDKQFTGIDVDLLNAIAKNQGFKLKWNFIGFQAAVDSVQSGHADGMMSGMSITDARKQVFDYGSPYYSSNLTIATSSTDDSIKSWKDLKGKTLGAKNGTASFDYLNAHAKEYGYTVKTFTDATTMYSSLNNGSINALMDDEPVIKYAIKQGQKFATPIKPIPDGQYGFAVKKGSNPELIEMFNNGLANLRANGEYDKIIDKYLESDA

SBD1 in SBD1-Δ5-SBD2 = target: T2, SBD1 in SBD1-Δ5-SBD2 (Lactococcus lactis, UniProt Q9CES5, DEL252-256); assay: Isothermal titration calorimetry, SBD1 site of linker deletion mutant; type: binding; conditions: ITC
T2 sequence (Q9CES5 27-484 DEL252-256): T1 sequence (Q9CES5 27-484 D417F)

[1] = target: T3, SBD1^A (SBD1(T159C/G87C)) (Lactococcus lactis, UniProt Q9CES5, T159C, form not given); assay: smFRET / ALEX spectroscopy titration, single SBD1^A; type: binding; conditions: single domain SBD1^A, Alexa Fluor 555/647, read-out: apparent KD
T3 sequence (Q9CES5 29-251 T159C): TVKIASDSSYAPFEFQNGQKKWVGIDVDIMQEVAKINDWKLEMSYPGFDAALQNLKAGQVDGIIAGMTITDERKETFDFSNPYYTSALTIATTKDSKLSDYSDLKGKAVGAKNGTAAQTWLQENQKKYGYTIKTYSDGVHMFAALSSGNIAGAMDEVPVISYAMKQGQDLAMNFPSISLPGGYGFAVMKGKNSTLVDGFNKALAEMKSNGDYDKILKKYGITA

SBD1^A-2 = target: T4, SBD1^A-2 (Lactococcus lactis, UniProt Q9CES5, T159C, form not given); assay: smFRET / ALEX spectroscopy titration, tandem SBD1^A-2; type: binding; conditions: Alexa Fluor 555/647, read-out: apparent KD
T4 sequence (Q9CES5 27-484 T159C): T1 sequence (Q9CES5 27-484 D417F)

SBD1(E184W)-2 = target: T5, SBD1(E184W)-2 (Lactococcus lactis, UniProt Q9CES5, E184W); assay: Isothermal titration calorimetry, tandem variant with inactive SBD1; conditions: binding to SBD2 in SBD1-2(E184W) (inactive SBD1); ITC
T5 sequence (Q9CES5 27-484 E184W): T1 sequence (Q9CES5 27-484 D417F)

SBD2 in SBD1-Δ5-SBD2 = target: T6, SBD2 in SBD1-Δ5-SBD2 (Lactococcus lactis, UniProt Q9CES5, DEL252-256); assay: Isothermal titration calorimetry, SBD2 site of linker deletion mutant; type: binding; conditions: SBD1-Δ5-SBD2, high-affinity site (SBD2), no asparagine; ITC figure 6f
T6 sequence (Q9CES5 27-484 DEL252-256): T1 sequence (Q9CES5 27-484 D417F)

[2] = target: T7, SBD2^C (SBD2(T369C/S451C)) (Lactococcus lactis, UniProt Q9CES5, S451C/T369C); assay: smFRET / ALEX spectroscopy titration, single SBD2^C; type: binding; conditions: single domain SBD2^C, Alexa Fluor 555/647, read-out: apparent KD
T7 sequence (Q9CES5 255-484 T369C/S451C): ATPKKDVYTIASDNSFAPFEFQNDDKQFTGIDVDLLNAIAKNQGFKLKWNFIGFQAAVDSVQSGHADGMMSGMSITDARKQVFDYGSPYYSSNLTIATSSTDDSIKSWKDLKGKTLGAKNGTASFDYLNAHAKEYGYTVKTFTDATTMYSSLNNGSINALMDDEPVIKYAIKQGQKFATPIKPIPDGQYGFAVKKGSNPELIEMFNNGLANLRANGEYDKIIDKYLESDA

SBD1-2^C = target: T8, SBD1-2^C (Lactococcus lactis, UniProt Q9CES5, S451C/T369C); assay: smFRET / ALEX spectroscopy titration, tandem SBD1-2^C; type: binding; conditions: Alexa Fluor 555/647, read-out: apparent KD
T8 sequence (Q9CES5 27-484 T369C/S451C): T1 sequence (Q9CES5 27-484 D417F)

Row | Compound | Kd (SBD1-2(D417F)) | Kd (SBD1 in SBD1-Δ5-SBD2) | Kd [1] | Kd (SBD1^A-2) | Kd (SBD1(E184W)-2) | Kd (SBD2 in SBD1-Δ5-SBD2) | Kd [2] | Kd (SBD1-2^C)
1 | NC(=O)C[C@H](N)C(=O)O [asparagine] | 400 ± 60 nM | 60 nM | 140 nM | 75 nM |  |  |  | 
2 | NC(=O)CC[C@H](N)C(=O)O [glutamine] |  | 25800 nM and 19000 nM | 130000 nM | 300000 nM | 1500 ± 800 nM | 1700 nM | 1500 nM and ~1500 nM | 900 nM and ~900 nM
